This passage reports TGI and GI50 results from PubChem BioAssay (NCI).

Experiment in all cases: NCI-60 cell line screen, 48 h
Experiment [1] deals with RPMI-8226 leukemia.
The test system of experiment [2] is UO-31 renal.
In experiment [3] the test system is SF-295 CNS.
In experiment [4] the test system is MOLT-4 leukemia.
For experiment [5], the system named is RXF 393 renal.
Experiment [6] relates to ACHN renal.
Experiment [7] concerns HCT-116 colon.
In experiment [8] the test system is A498 renal.
Experiment [9] has as its system CAKI-1 renal.

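Grown in 96-well plates, cells were treated for 48 hours with each compound at five concentrations. Insufficient inhibition: endpoint recorded as highest concentration tested. GI50 marks 50% less growth. Definition used: TGI = concentration required for complete inhibition of growth.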

On to `Cc1cc(NC(=O)NC(=O)c2ccccc2[N+](=O)[O-])ccc1Oc1ncc(Cl)cn1`, for which the TGI in experiment [1] was more than 100 µM; in experiment [2], 75.6 µM; in [3], 29.3 µM; in experiment [4] it was more than 100 µM; in experiment [5] it was 0.147 µM; in experiment [6], 42.1 µM. The TGI stood at 18 µM in experiment [7] and 19.6 µM in [8].

With `NC1=NN(c2ccccc2)C(=O)C1C(=O)C(=O)NC1C2CC3CC(C2)CC1C3` (stereo unspecified), the TGI in experiment [2], in experiment [3], in [4], in experiment [5], in [6] and in [7] was more than 100 µM each time.

As to `COC(=O)C1C2CC3C(OC(=O)C31)C2I` (stereo unspecified), the TGI is more than 100 µM in [1]; more than 100 µM in experiment [2]; more than 100 µM in [9]; more than 100 µM in experiment [3]; more than 100 µM in experiment [4]; more than 10 µM in experiment [5]. Moreover, the TGI in experiment [6], in [7] and in experiment [8] was more than 100 µM each time.

Regarding `C=CCOC1=C2CC[C@H](O)[C@@]2(C)CCC1=O`, the TGI in [1], in [2], in experiment [9], in experiment [3], in experiment [4] and in [5] was more than 100 µM in each case. The TGI in experiment [6], in experiment [7] and in [8] was more than 100 µM each time.

For `CCOC(=O)NC(=O)c1cn(CCCCCCCCCCC(=O)N2CCN(CCn3cc(C(=O)NC(=O)OCC)c(=O)[nH]c3=O)CC2)c(=O)[nH]c1=O`, the TGI in experiment [1], in experiment [9], in experiment [3], in experiment [4], in [5] and in experiment [6] was more than 100 µM throughout. In addition, the TGI in experiment [7] and in experiment [8] was more than 100 µM each time.

As for `CC1=C(C)C(=O)c2c(cc3c4ccccc4ccn23)C1=O`, the TGI in experiment [1], in experiment [2], in experiment [3], in experiment [4], in [5] and in experiment [6] was more than 100 µM throughout.

Consider `COc1ccc(S(=O)(=O)Nc2cc(/C=C\c3cc(OC)c(OC)c(OC)c3)cc(OC)c2OC)cc1OC`, for which the GI50 is 0.567 µM in experiment [1]; 1.59 µM in [2]; 0.813 µM in [9]; 0.47 µM in experiment [3]; 0.702 µM in experiment [4]; 0.683 µM in experiment [5]. In addition, the GI50 in experiment [6] is 0.928 µM; in [7], 0.469 µM; in [8], 0.154 µM. For the same compound, the TGI in experiment [1] was more than 100 µM; in experiment [2] it was more than 100 µM; in experiment [9] it was more than 100 µM; in experiment [3] it was 55.6 µM; in experiment [4], more than 100 µM; in experiment [5], 4.55 µM. Moreover, the TGI in [6] was more than 100 µM; in experiment [7], more than 100 µM; in [8], 0.906 µM.

As for `CCCCCCCCCCCCCCCCc1c(C(=O)OC)[nH]c(=S)[nH]c1=O`, the TGI in [1], in [2], in [9], in [3], in experiment [4] and in [5] was more than 50 µM in each case. Further, the TGI in experiment [6], in experiment [7] and in experiment [8] was more than 50 µM each time.

As to `Cn1c(O)c(C=N)c(=O)n(C)c1=O`, the TGI in experiment [1], in experiment [2], in experiment [9], in [3], in [4] and in experiment [5] was more than 100 µM in each case. The compound also had a TGI in experiment [6] of more than 100 µM.

On to `OCC1OC(n2ccc3cnccc32)CC1O` (stereo unspecified), for which the TGI in [1], in experiment [2], in experiment [9], in experiment [3], in experiment [4] and in experiment [6] was more than 100 µM in each case. Further, the TGI in [7] and in [8] was more than 100 µM each time.

With `[Ce+3].[Cl-].[O-]/N=C(\c1ccccc1)c1ccccn1.[O-]/N=C(\c1ccccc1)c1ccccn1.[O-]/N=C(\c1ccccc1)c1ccccn1`, the GI50 was 59.7 µM in experiment [1]; 28.1 µM in experiment [2]; 32.4 µM in experiment [9]; 37.2 µM in [3]; 27.7 µM in experiment [4]; 34.4 µM in experiment [5]. In addition, the GI50 in [6] was 48.9 µM; in experiment [7], 33.8 µM; in [8], 54 µM. Besides, the TGI in experiment [1] is more than 100 µM; in experiment [2], 82.9 µM; in experiment [9], more than 100 µM; in [3], more than 100 µM; in experiment [4], more than 100 µM; in experiment [5], 96.3 µM. Further, the TGI in experiment [6], in experiment [7] and in [8] was more than 100 µM throughout.

Regarding `Cc1c(NC(=O)CCCl)c(=O)oc2c(C)c3occc(=O)c3cc12`, the TGI in experiment [1], in [2], in experiment [9], in [3], in [4] and in experiment [5] was more than 100 µM each time. Further, the values for the TGI in experiment [6], in experiment [7] and in [8] were more than 100 µM, more than 100 µM and 76.2 µM, respectively.

Take `CC12Oc3ccc4ccccc4c3C1c1c(ccc3ccccc13)O2` (stereo unspecified): the TGI in experiment [2], in experiment [9], in experiment [3], in [4], in [5] and in experiment [6] was more than 100 µM in each case. In experiment [7], this compound registered a TGI of more than 100 µM.

With `CC(=O)c1cc2c3c(c1)c1cc4c(cc1c(=O)n3CC2)OCO4`, the TGI was more than 100 µM in experiment [1]; 38.6 µM in experiment [2]; 91.3 µM in [9]; more than 100 µM in experiment [3]; 9.92 µM in experiment [4]; more than 100 µM in experiment [5]. Also, the figures for the TGI in [6] and in [7] were more than 100 µM and 26.6 µM, respectively.

In the case of `Cn1nc(-c2ccccc2)c(C(=O)/C=C/c2ccccc2)c(N2CCCCC2)c1=O`, the TGI was more than 100 µM in [2]; 60.1 µM in experiment [9]; more than 100 µM in experiment [4]; 73.1 µM in experiment [5]; more than 100 µM in [6]; more than 100 µM in [7].
